“And” between values parts separate entries of the source, which are not always exact repeats. Equal entries are not always repeated. Where two headings read alike, the source gives them in different places.
Legend:
Format in all cases: in vivo
[1] = test system: Sorghum vulgare (grain sorghum, SORVU); experiment: Greenhouse postemergence trial SORVU; settings: Compound A 10 g/ha
Experimental: (§1) Seeds of the desired test plant species were planted in a 90:10% v/v (volume/volume) mixture of PRO-MIX® BX (Premier Tech Horticulture, Quakertown, PA, USA) and PROFILE® GREENS GRADE™ (Profile Products LLC, Buffalo Grove, IL, USA) planting mixture, which typically has a pH of 5.2 to 6.2 and an organic matter content of at least 50 percent, in plastic pots with a surface area of 103.2 square centimeters (cm^2). […] The plants were grown for 7-36 days (d) in a greenhouse with an approximate 14-hour (h) photo-period which was maintained at about 23° C. during the day and 22° C. during the night. Nutrients and water were added on a regular basis and supplemental lighting was provided with overhead metal halide 1000-Watt lamps as necessary. The plants were employed for testing when they reached the second or third true leaf stage.
(§2) Emulsifiable concentrates of each of each pyridine carboxylate herbicide (Compound A or Compound B) were prepared at 100 grams acid equivalent per liter (g ae/L). The emulsifiable concentrates also included a safener, cloquintocet-mexyl, at 120 grams active ingredient per liter (g ai/L), unless otherwise noted below. An aliquot of each emulsifiable concentrate was placed in a 25 mL glass vial and diluted with an aqueous mixture of 1.25% (v/v) ACTIROB® B esterified rapeseed oil (Bayer Crop Science, Research Triangle Park, NC, USA) or MSO® Concentrate with LECI-TECH® methylated soybean oil (Loveland Products, Loveland, CO, USA) to obtain concentrated stock solutions at the highest application rate for each herbicide, based upon a 12 milliliter (mL) application volume at a rate of 187 liters per hectare (L/ha). The concentrated stock solutions were further diluted with an aqueous mixture of 1.25% v/v ACTIROB® B or MSO® Concentrate with LECI-TECH® to obtain stock solutions at reduced application rates for each herbicide. Spray solutions of the herbicide combinations (Compound A or Compound B plus synthetic auxin herbicide or auxin transport inhibitor) were prepared by adding weighed amounts or aliquots of the synthetic auxin herbicide or auxin transport inhibitor to the stock solutions of Compound A or Compound B to form 12-mL spray solutions in two-way combinations. […]
(§3) The treated plants and control plants were placed in a greenhouse as described above and watered by sub-irrigation to prevent wash-off of the test compounds. After 20-22 d, the condition of the test plants as compared with that of the control plants was determined visually and scored on a scale of 0 to 100 percent where 0 corresponds to no injury and 100 corresponds to complete kill.

[2] = test system: Brassica napus (winter rape, BRSNW); experiment: Greenhouse postemergence trial BRSNW; settings: for plant injury at 10 g/ha / plant injury at 15 g/ha: Brassica napus, post-emergence
[3] = test system: Abutilon theophrasti (velvetleaf, ABUTH); experiment: Greenhouse postemergence trial ABUTH; settings: Compound A 10 g/ha
Experimental: as §1
(§4) Emulsifiable concentrates of each of each pyridine carboxylate herbicide (Compound A or Compound B) were prepared at 100 grams acid equivalent per liter (g ae/L). The emulsifiable concentrates also included a safener, cloquintocet-mexyl, at 120 grams active ingredient per liter (g ai/L), unless otherwise noted below. An aliquot of each emulsifiable concentrate was placed in a 25 mL glass vial and diluted with an aqueous mixture of 1.25% (v/v) ACTIROB® B esterified rapeseed oil (Bayer Crop Science, Research Triangle Park, NC, USA) or MSO® Concentrate with LECI-TECH® methylated soybean oil (Loveland Products, Loveland, CO, USA) to obtain concentrated stock solutions at the highest application rate for each herbicide, based upon a 12 milliliter (mL) application volume at a rate of 187 liters per hectare (L/ha). The concentrated stock solutions were further diluted with an aqueous mixture of 1.25% v/v ACTIROB® B or MSO® Concentrate with LECI-TECH® to obtain stock solutions at reduced application rates for each herbicide. Spray solutions of the herbicide combinations (Compound A or Compound B plus synthetic auxin herbicide or auxin transport inhibitor) were prepared by adding weighed amounts or aliquots of the synthetic auxin herbicide or auxin transport inhibitor to the stock solutions of Compound A or Compound B to form 12-mL spray solutions in two-way combinations.
(§5) The spray solutions were applied to the plant material with an overhead Mandel track sprayer equipped with 8002E nozzles calibrated to deliver 187 L/ha over an application area of 0.503 square meters (m^2) at a spray height of 18 inches (43 centimeters (cm)) above the average plant canopy. Control plants were sprayed in the same manner with the solvent blank. All pyridine carboxylate herbicide (component a) application rates are given as “g ae/ha” and all synthetic auxin herbicide or auxin transport inhibitor (component b) application rates are given as “g ai/ha.”
as §3

[4] = test system: Setaria faberi (giant foxtail, SETFA); experiment: Greenhouse postemergence trial SETFA; settings: Compound A 10 g/ha
Experimental: as §1, §4, §5, §3

[5] = test system: Avena fatua (wild oat, AVEFA); experiment: Greenhouse postemergence trial AVEFA; settings: Compound A 10 g/ha
Experimental: as §1, §2, §3

[6] = test system: Digitaria sanguinalis (large crabgrass, DIGSA); experiment: Greenhouse postemergence trial DIGSA; settings: Compound A 10 g/ha
Experimental: as §1, §4, §5, §3

[7] = test system: Capsella bursa-pastoris (shepherd's purse, CAPBP); experiment: Greenhouse postemergence trial CAPBP; settings: CAPBP; for % visual injury, Obs: applied alone
[8] = test system: Alopecurus myosuroides (blackgrass, ALOMY); experiment: Greenhouse postemergence trial ALOMY; settings: Compound A 10 g/ha
Experimental: as §1, §2, §3

[9] = test system: Papaver rhoeas (corn poppy, PAPRH); experiment: Greenhouse postemergence trial PAPRH; settings: PAPRH; for % visual injury Obs: alone; for % visual injury, Obs: applied alone
[10] = test system: Matricaria chamomilla (wild chamomile, MATCH); experiment: Greenhouse postemergence trial MATCH;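 further: greenhouse plants sprayed at second to third true leaf stage, injury rated by eye 20-22 d later versus solvent-blank controls on 0–100 scale, 0 no injury, 100 complete kill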
[11] = test system: Salsola kali (Russian thistle, SASKR); experiment: Greenhouse postemergence trial SASKR;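 further: greenhouse plants sprayed at second or third true leaf stage, injury rated by eye after 20-22 d against solvent-blank controls, 0 meaning no injury, 100 complete kill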
[12] = test system: Ipomoea hederacea (ivyleaf morningglory, IPOHE); experiment: Greenhouse postemergence trial IPOHE; settings: Compound A 10 g/ha
Experimental: as §1, §4, §5, §3

[13] = test system: Hordeum vulgare (spring barley, HORVS)
[14] = test system: Triticum aestivum (spring wheat, TRZAS)
[15] = test system: Amaranthus retroflexus (pigweed, AMARE); experiment: Greenhouse postemergence trial AMARE;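 further: Greenhouse-grown plants sprayed at second to third true leaf stage, injury rated by eye after 20-22 d versus solvent-blank sprayed controls, 0 = no injury, 100 = complete kill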
Experimental: The plants were grown for 7-36 days (d) in a greenhouse with an approximate 14-hour (h) photo-period which was maintained at about 23° C. during the day and 22° C. during the night. Nutrients and water were added on a regular basis and supplemental lighting was provided with overhead metal halide 1000-Watt lamps as necessary. The plants were employed for testing when they reached the second or third true leaf stage.
The emulsifiable concentrates also included a safener, cloquintocet-mexyl, at 120 grams active ingredient per liter (g ai/L), unless otherwise noted below.
Control plants were sprayed in the same manner with the solvent blank. All pyridine carboxylate herbicide (component a) application rates are given as “g ae/ha” and all synthetic auxin herbicide or auxin transport inhibitor (component b) application rates are given as “g ai/ha.”
as §3

[16] = test system: Lolium multiflorum (Italian ryegrass, LOLMU); experiment: Greenhouse postemergence trial LOLMU; settings: Compound A 10 g/ha
Experimental: as §1, §4, §5, §3

[17] = Hordeum vulgare (spring barley, HORVS), in vivo
[18] = c1-2 Compound A 7.5/10, c3 Quinclorac 140, c4-5 A 7.5/10 + Quinclorac 140 g/ha
[19] = c1-3 Compound A 7.5/10/15, c4-5 Fluroxypyr-MHE 100/140, c6-8, c9-11 A 7.5/10/15 + Fluroxypyr-MHE 100, 140 g/ha
[20] = c1-3 Compound A 7.5/10/15, c4 Aminopyralid 5, c5-7 A 7.5/10/15 + Aminopyralid 5 g/ha
[21] = c1-3 Compound A 7.5/10/15, c4 Halauxifen-methyl 6, c5-7 A 7.5/10/15 + Halauxifen-methyl 6 g/ha
[22] = Triticum aestivum (spring wheat, TRZAS), in vivo

N#CCOC(=O)c1nc(-c2ccc3cc[nH]c3c2F)c(F)c(N)c1Cl [Compound A, cyanomethyl 4-amino-3-chloro-5-fluoro-6-(7-fluoro-1H-indol-6-yl)pyridine-2-carboxylate]
SORVU Obs (% visual injury) ([1]; without safener): 0% | % visual injury, Obs ([1]; SORVU): 0% | visual injury, Obs ([2]; BRSNW, Compound A 10 g/ha alone): 65% | visual injury, Obs ([2]; BRSNW, Compound A 15 g/ha alone): 80% | % visual injury (Obs) ([2]; BRSNW, alone 10 g/ha): 68% | plant injury at 10 g/ha ([2]; BRSNW, Compound A 10 g/ha, read-out: % visual injury Obs): 65% | plant injury at 10 g/ha ([2]; BRSNW, Compound A 10 g/ha, read-out: % visual injury, Obs): 68% | plant injury at 15 g/ha ([2]; BRSNW, Compound A 15 g/ha, read-out: % visual injury Obs): 80% | plant injury at 10 g/ha ([2]; BRSNW, alone, 10 g/ha, read-out: % visual injury Obs): 65% | plant injury at 15 g/ha ([2]; BRSNW, alone, 15 g/ha, read-out: % visual injury Obs): 80% | plant injury at 15 g/ha ([2]; BRSNW, applied alone, 15 g/ha, read-out: % visual injury, Obs): 80% | BRSNW Obs (% visual injury) ([2]; Compound A 10 g/ha, without safener): 65% | % visual injury, Obs ([3]; ABUTH): 75% | ABUTH Obs (% visual injury) [3]: 78% | ABUTH Obs (% visual injury) ([3]; without safener): 75% | SETFA Obs (% visual injury) [4]: 70% | SETFA Obs (% visual injury) ([4]; without safener): 0% | % visual injury, Obs ([4]; SETFA): 0% | % visual injury, Obs ([5]; AVEFA): 0% | AVEFA Obs (% visual injury) ([5]; without safener): 0% | DIGSA Obs (% visual injury) [6]: 25% | DIGSA Obs (% visual injury) ([6]; without safener): 8% | % visual injury, Obs ([6]; DIGSA): 8% | visual injury, Obs ([7]; Compound A 10 g/ha alone): 50% | visual injury, Obs ([7]; Compound A 15 g/ha alone): 85% | % visual injury (Obs) ([7]; alone 10 g/ha): 78% | % visual injury Obs ([7]; alone 10 g/ha): 50% | % visual injury Obs ([7]; alone, 15 g/ha): 85% | % visual injury, Obs ([7]; 10 g/ha): 50% | % visual injury, Obs ([7]; 15 g/ha): 85% | pest or weed control at […] ([7]; Capsella bursa-pastoris, post-emergence, Compound A 7.5 g/ha, read-out: % visual injury Obs): 50% | pest or weed control at 10 g/ha ([7]; Capsella bursa-pastoris, post-emergence, Compound A 10 g/ha, read-out: % visual injury Obs): 50% | pest or weed control at 15 g/ha ([7]; Capsella bursa-pastoris, post-emergence, Compound A 15 g/ha, read-out: % visual injury Obs): 85% | % visual injury, Obs ([8]; ALOMY): 0% | ALOMY Obs (% visual injury) ([8]; without safener): 0% | visual injury, Obs ([9]; Compound A 10 g/ha alone): 100% | visual injury, Obs ([9]; Compound A 15 g/ha alone): 100% | % visual injury Obs ([9]; 10 g/ha): 100% | % visual injury Obs ([9]; 15 g/ha): 100% | % visual injury, Obs ([9]; 10 g/ha): 100% | % visual injury, Obs ([9]; 15 g/ha): 100% | pest or weed control at […] ([9]; Papaver rhoeas, post-emergence, Compound A 7.5 g/ha, read-out: % visual injury Obs): 100% | pest or weed control at 10 g/ha ([9]; Papaver rhoeas, post-emergence, Compound A 10 g/ha, read-out: % visual injury Obs): 100% | pest or weed control at 15 g/ha ([9]; Papaver rhoeas, post-emergence, Compound A 15 g/ha, read-out: % visual injury Obs): 100% | MATCH % visual injury Obs ([10]; Compound A 10 g/ha (Table 42)): 13% | MATCH % visual injury Obs ([10]; Compound A 10 g/ha (Table 43)): 13% | MATCH % visual injury Obs ([10]; Compound A 10 g/ha (Table 44)): 13% | % visual injury, Obs ([10]; MATCH, Compound A 10 g/ha): 30% | visual injury, Obs ([10]; MATCH, Compound A 10 g/ha alone): 20% | visual injury, Obs ([10]; MATCH, Compound A 15 g/ha alone): 20% | % visual injury (Obs) ([10]; MATCH, alone 10 g/ha): 33% and 30% | % visual injury Obs ([10]; MATCH, alone 10 g/ha): 20% | % visual injury Obs ([10]; MATCH, alone, 15 g/ha): 20% | % visual injury, Obs ([10]; MATCH, applied alone, 10 g/ha): 20% | % visual injury, Obs ([10]; MATCH, applied alone, 15 g/ha): 20% | pest or weed control at […] ([10]; Matricaria chamomilla, post-emergence, MATCH, Compound A 7.5 g/ha, read-out: % visual injury Obs): 15% | pest or weed control at 10 g/ha ([10]; Matricaria chamomilla, post-emergence, MATCH, Compound A 10 g/ha, read-out: % visual injury Obs): 20% | pest or weed control at 15 g/ha ([10]; Matricaria chamomilla, post-emergence, MATCH, Compound A 15 g/ha, read-out: % visual injury Obs): 20% | SASKR Obs (% visual injury) ([11]; Compound A 10 g/ha): 65% and 63% | SASKR % visual injury Obs ([11]; Compound A 10 g/ha (Table 42)): 65% | SASKR % visual injury Obs ([11]; Compound A 10 g/ha (Table 43)): 65% | SASKR % visual injury Obs ([11]; Compound A 10 g/ha (Table 44)): 65% | % visual injury, Obs ([11]; SASKR, Compound A 10 g/ha): 65% | visual injury, Obs ([11]; SASKR, Compound A 10 g/ha alone): 50% | visual injury, Obs ([11]; SASKR, Compound A 15 g/ha alone): 50% | % visual injury (Obs) ([11]; SASKR, alone, 10 g/ha): 63% | % visual injury Obs ([11]; SASKR, alone, 10 g/ha): 50% | % visual injury Obs ([11]; SASKR, alone, 15 g/ha): 50% | % visual injury, Obs ([11]; SASKR, applied alone, 10 g/ha): 50% and 63% | % visual injury, Obs ([11]; SASKR, applied alone, 15 g/ha): 50% | pest or weed control at […] ([11]; Salsola kali, post-emergence, SASKR, Compound A 7.5 g/ha, read-out: % visual injury Obs): 30% | pest or weed control at 10 g/ha ([11]; Salsola kali, post-emergence, SASKR, Compound A 10 g/ha, read-out: % visual injury Obs): 50% | pest or weed control at 15 g/ha ([11]; Salsola kali, post-emergence, SASKR, Compound A 15 g/ha, read-out: % visual injury Obs): 50% | IPOHE Obs (% visual injury) ([12]; without safener): 15% | % visual injury, Obs ([12]; IPOHE): 15% | HORVS Obs (% visual injury) ([13]; Compound A 10 g/ha): 0% | HORVS % visual injury Obs ([13]; Compound A 10 g/ha (Table 42)): 0% | HORVS % visual injury Obs ([13]; Compound A 10 g/ha (Table 43)): 0% | HORVS % visual injury Obs ([13]; Compound A 10 g/ha (Table 44)): 0% | % visual injury Obs ([13]; HORVS, Compound A 10 g/ha): 0% | % visual injury, Obs ([13]; HORVS, Compound A 10 g/ha): 0% | visual injury, Obs ([13]; HORVS, Compound A 10 g/ha alone): 0% | % visual injury Obs ([13]; HORVS, Compound A 15 g/ha): 0% | visual injury, Obs ([13]; HORVS, Compound A 15 g/ha alone): 0% | % visual injury (Obs) ([13]; HORVS, alone 10 g/ha): 0% | % visual injury Obs ([13]; HORVS, alone 10 g/ha): 0% | % visual injury Obs ([13]; HORVS, alone, 15 g/ha): 0% | % visual injury, Obs ([13]; HORVS, applied alone, 10 g/ha): 0% | % visual injury, Obs ([13]; HORVS, applied alone, 15 g/ha): 0% | % visual injury (crop phytotoxicity) [13, 17]: 0% | % visual injury, Obs (crop phytotoxicity) [13, 17]: 0% | % visual injury (crop phytotoxicity) [13, 18]: 0% | % visual injury (crop phytotoxicity) [13, 19]: 0% | % visual injury (crop phytotoxicity) [13, 20]: 0% | % visual injury (crop phytotoxicity) [13, 21]: 0% | TRZAS Obs (% visual injury) ([14]; Compound A 10 g/ha): 0% | TRZAS % visual injury Obs ([14]; Compound A 10 g/ha (Table 42)): 0% | TRZAS % visual injury Obs ([14]; Compound A 10 g/ha (Table 43)): 0% | TRZAS % visual injury Obs ([14]; Compound A 10 g/ha (Table 44)): 0% | % visual injury Obs ([14]; TRZAS, Compound A 10 g/ha): 0% | % visual injury, Obs ([14]; TRZAS, Compound A 10 g/ha): 0% | visual injury, Obs ([14]; TRZAS, Compound A 10 g/ha alone): 0% | % visual injury Obs ([14]; TRZAS, Compound A 15 g/ha): 0% | visual injury, Obs ([14]; TRZAS, Compound A 15 g/ha alone): 0% | % visual injury (Obs) ([14]; TRZAS, alone 10 g/ha): 0% | % visual injury Obs ([14]; TRZAS, alone 10 g/ha): 0% | % visual injury Obs ([14]; TRZAS, alone, 15 g/ha): 0% | % visual injury, Obs ([14]; TRZAS, applied alone, 10 g/ha): 0% | % visual injury, Obs ([14]; TRZAS, applied alone, 15 g/ha): 0% | % visual injury (crop phytotoxicity) [14, 22]: 0% | % visual injury, Obs (crop phytotoxicity) [14, 22]: 0% | % visual injury (crop phytotoxicity) [14, 18]: 0% | % visual injury (crop phytotoxicity) [14, 19]: 0% | % visual injury (crop phytotoxicity) [14, 20]: 0% | % visual injury (crop phytotoxicity) [14, 21]: 0% | % visual injury, Obs ([15]; AMARE, Compound A 10 g/ha): 100% and 90% | % visual injury (Obs) ([15]; AMARE, alone 10 g/ha): 98% and 90% | % visual injury, Obs ([15]; AMARE, applied alone, 10 g/ha): 85% | AMARE Obs (% visual injury) ([15]; Compound A 10 g/ha): 100% and 98% | AMARE % visual injury Obs ([15]; Compound A 10 g/ha (Table 42)): 100% | AMARE % visual injury Obs ([15]; Compound A 10 g/ha (Table 43)): 100% | AMARE % visual injury Obs ([15]; Compound A 10 g/ha (Table 44)): 100% | LOLMU Obs (% visual injury) [16]: 0% | LOLMU Obs (% visual injury) ([16]; without safener): 0% | % visual injury, Obs ([16]; LOLMU): 0%

Source: patent US12568967B2, “Compositions comprising pyridine carboxylate herbicides with synthetic auxin herbicides or auxin transport inhibitors” (priority 2018, dated 2026)
